For data set [1], the system named is amastigotes of L. donovani. The conditions noted are these: ref Kaiser et al., 2000; cited from earlier work.
A short description of data set [2]: Cytotoxicity to macrophages. The conditions noted are these: BALB/c, mouse, peritoneal macrophages. It is filed as cell-based, mice.
The test system of data set [3] is peritoneal macrophages from BALB/c mice. The experiment in a line: Cytotoxicity to macrophages. It is filed as cell-based. To be noted: peritoneal macrophages from BALB/c mice.
Data set [4] deals with Plasmodium falciparum sensitive to chloroquine. The arrangement: method as in Vale et al., 2020. To be noted: ref Vale et al., 2020; cited from earlier work.
For data set [5] the following is noted: compared with EEEp and FDCMEp, ref Albuquerque et al., 2023, cited from earlier work.
A further data set concerns HepG2. The arrangement: method as in Gomes et al., 2021. The conditions noted are these: exposure for 24 h, compared with EEEp and FDMEp; ref Gomes et al., 2021; cited from earlier work.
For data set [6], the system named is promastigotes of L. amazonensis. The experiment in a line: Inhibition of growth/viability of L. amazonensis promastigotes (MTT). It is filed as cell-based. To be noted: Leishmania amazonensis. The method, then:
Inhibition of Leishmania growth was evaluated in vitro by cultivating promastigotes of L. amazonensis in stationary phase (5×10^6 parasites) in the presence of the extract, fractions and isoeleutherin (200–3.125 μg/mL) in 96-well culture plates (Nunc, Nunclon®, Roskilde, Denmark), for 72 h at 26°C. Viability was assessed by measuring the cleavage of MTT [3-(4,5-dimethylthiazol-2-yl)-2,5-diphenyl tetrazolium bromide] (Sigma) ([Ngure et al., 2009]). Absorbances were measured using a multiwell scanning spectrophotometer (Molecular Devices, Spectra Max Plus, Canada) at 490 nm. Amphotericin B (AmpB) was used as a positive control (25–0.3906 μg/mL). The concentration of products required to inhibit 50% of the viability of L. amazonensis (IC50) was determined by applying a sigmoidal regression of the individual concentration response curves of the compounds. The data are representative of independent experiments, carried out in triplicate, which presented similar results ([Mota et al., 2011]).

In data set [7] the test system is intracellular amastigote forms of L. amazonensis. The experiment in a line: Anti-amastigote assay in infected murine macrophages (Giemsa count). The conditions noted are these: 500, 250 and 125 μg/mL, 72 h. Format: cell-based, Leishmania amazonensis. The method, then: Murine macrophages (4 × 10^5 cells) were seeded on round glass coverslips into 24-well culture plates (Nunc) in RPMI 1640 medium (Sigma and Aldrich), supplemented with 20% fetal bovine serum (FBS), 2 mM L-glutamine, penicillin 50 IU/mL, and streptomycin 50 μg/mL, pH 7.4. After 24 h of incubation at 35°C in 5% CO2, promastigotes of L. amazonensis in stationary phase were added to the wells (4 × 10^6 parasites) to promote infection of macrophages, and the cultures were incubated for 4 h at 35°C in 5% CO2. Next, the free parasites were removed by extensive washing with RPMI 1640 medium, and the infected macrophages were quantified and treated with the extract, FA2, FA3, fraction FA4, and isoeleutherin (500–125 μg/mL, each) for 72 h at 35°C in 5% CO2. The negative control consisted of infected macrophages and culture medium. The positive control used AmpB (100–25 μg/mL). Then, coverslips were stained with Giemsa, and the percentage of inhibition of intramacrophage viability of Leishmania was determined by counting the number of amastigotes per 100 macrophages on each coverslip, under a light microscope (×100 magnification). The presented data were performed in triplicate, and the IC50 was determined using GraphPad Prism version 5.04 ([Silva, 2005]).

A further data set relates to Th cells. Details: method as in Hong et al., 2008. To be noted: ref Hong et al., 2008; cited from earlier work.
Data set [8] concerns amastigotes of L. amazonensis. Details: method as in Cunha-Junior et al., 2011. To be noted: ref Cunha-Junior et al., 2011; cited from earlier work.
For the next data set, the system named is Allium cepa. Details: method as in Castro et al., 2021a. To be noted: Allium cepa model, 12.5 μg/mL in 72 h; ref Castro et al., 2021a; cited from earlier work.

≈ marks a conversion by molar mass, not a printed value. Entries after “also recorded” stand apart in the source; their conditions may differ. Where two headings read alike, the source gives them in different places. Some results are limits rather than exact numbers.

Regarding `O=C1C=C(C2=CC(=O)c3cccc(O)c3C2=O)C(=O)c2c(O)cccc21` [3,3-Bijuglone], in data set [1], the “IC50 for amastigotes of L. donovani” value is 15 µg/mL.

As to `CC1=C(C2=C(C)C(=O)c3ccc(OCc4ccccc4)c(O)c3C2=O)C(=O)c2c(ccc(OCc3ccccc3)c2O)C1=O` [6,6-Dibenzyloxy-3,3-bi-plumbagin], the “IC50 for amastigotes of L. donovani” value in data set [1] is 14.2 µg/mL.

In general, CC50 refers to the concentration at which the toxic effect on the cells reaches its halfway point. Low values mean greater toxicity to the cells, high ones lower toxicity to the cells. As to `C[C@@H]1[C@H](O)[C@@H](C)/C=C/C=C/C=C/C=C/C=C/C=C/C=C/[C@H](O[C@@H]2O[C@H](C)[C@@H](O)[C@H](N)[C@@H]2O)C[C@@H]2O[C@](O)(C[C@@H](O)C[C@@H](O)[C@H](O)CC[C@@H](O)C[C@@H](O)CC(=O)O[C@H]1C)C[C@H](O)[C@H]2C(=O)O` [Amphotericin B, reference compound], in [2], the CC50 was > 100 µg/mL.

One may read the IC50 as the concentration at which inhibition is half-maximal. `COc1cccc2c1C(=O)C1=C(C[C@@H](C)O[C@@H]1C)C2=O` [Isoeleutherin, isoeleutherin]: in [3], the “cytotoxicity on macrophages (in words)” value is given as “did not show cytotoxicity; also recorded: no cytotoxicity”. Also, in [2], the 50% cytotoxic concentration (CC50) is > 500 µg/mL. Also, the “activity in Plasmodium falciparum” value in data set [4] is on record as “active”. The “genotoxicity / cytotoxicity in the micronucleus test” value in data set [5] was “lowest cytotoxicity”; in data set [5] (listed as is eleutherin), “less genotoxic”. The “cytotoxicity in HepG2” value in the data set with HepG2 was “the least toxic sample”. Further, the half-inhibitory concentration (IC50) in data set [6] (parasite form not given, sentence on selectivity index, read-out: IC50 against L. amazonensis) was > 200 µg/mL; in data set [6] (promastigotes, 72 h at 26°C, MTT, read-out: IC50 against promastigote form of L. amazonensis), 25 µg/mL (≈ 91.8 µM). Moreover, in data set [7], the “anti-amastigote activity (number of amastigotes in infected macrophages vs negative control)” value was “No reductions in the number of amastigotes; also recorded: inactive”. Besides, the “effect on cytokine production of Th cells” value in the data set with Th cells is on record as “selectively stimulating IFNc production”.

For `O=C1C2=C(C(=O)c3ccccc31)[C@H]1Oc3ccccc3[C@H]1CO2` [LQB-118], the “reduction in the number of amastigotes of L. amazonensis” value in [8] is “concentration-dependent reduction”.

Consider `COc1cccc2c1C(=O)C1=C(C[C@H](C)O[C@@H]1C)C2=O` [eleutherin], for which the “percentage of chromosomal aberrations” value with Allium cepa is “higher percentage of chromosomal aberrations than isoeleutherin”.

For the molecule `Cc1cc(=O)c2c(C)cc3cc(O)cc(O)c3c2o1` [eleutherinol, reference compound], the “effect on cytokine production of Th cells” value in the data set with Th cells was “inhibited the production of IFNc and IL-2”.
